From paper PMC6271893, “In Vitro Antioxidant and Cytotoxic Activity of Some Synthetic Riparin-Derived Compounds” (Molecules, 2014)
≈ marks a conversion by molar mass, not a printed value. Marks after values point to notes of the source that are not given here.

How the values were obtained:
[1] = tested on: larynx carcinoma cell line HEP-2; design: method as in PMID 23569415; conditions: cited from earlier work
[2] = Hydroxyl radical scavenging activity (2-deoxyribose degradation, Fenton reaction); conditions: for IC50 OH radical: hydroxyl radical content
Description: (§1) For the in vitro antioxidant tests the samples were emulsified in 0.05% Tween 80 dissolved in saline 0.9% (used as the vehicle) and tested at concentrations of 1, 5, 10, 25 and 100 µg/mL. The samples for the cytotoxicity tests were diluted in pure and sterile DMSO and tested at concentrations of 25 µg/mL.
The formation of OH radicals from Fenton reagents was quantified using the condensation product of the 2-deoxyribose oxidative degradation product, malonaldehyde, with 2-thiobarbituric acid (TBA). Briefly, typical reactions were started by the addition of Fe^2+ (FeSO4 6 mM final concentration) to solutions containing 5 mM 2-deoxyribose, 100 mM H2O2 and 20 mM phosphate buffer (pH 7.2). In order to determine the antioxidant activity of the riparins against the hydroxyl radical, individual tests were performed on each one of the six substances, in which different concentrations of the riparins were added to the system before Fe^2+ addition (Rip-A; Rip-B; Rip-C; Rip-D; Rip-E and Rip-F). Reactions were carried out for 15 min at room temperature and were quenched by the addition of phosphoric acid 4% (v/v), followed by TBA 1% (thiobarbituric acid, v/v in 50 μL NaOH). The solutions were boiled for 15 min to 95 °C and then cooled at room temperature. The absorbance was measured at 532 nm and the results were expressed as MDA equivalents formed by Fe^2+ and H2O2 [25].

[3] = tested on: tumor cells lines (leukemia and lung and laryngeal carcinoma); test: Cytotoxicity on tumor cell lines, summary statements over the lines (MTT); type: cell-based; conditions: Homo sapiens; for IC50: leukemia and lung and laryngeal carcinoma, read-out: IC50 values on neoplastic cells (range over cell lines); for inhibition at 25 µg/mL: tumor cells lines, cytotoxicity samples tested at 25 µg/mL, read-out: cell growth inhibition rates
Description: as §1
(§2) Cells were maintained at 37 °C with 5% CO2 in RPMI 1640 (Himedia^TM, Mumbai, India) or DMEM medium (Gibco^TM, Grand Island, NY, USA) supplemented with 2 mM glutamine, 100 U/mL penicillin, 100 μg/mL streptomycin. The antiproliferative activities of riparins were evaluated in the following human cancer cells lineage: HL-60 (pro-myelocytic leukemia), NCIH-292 (lung carcinoma), and HEP-2 (laryngeal carcinoma) obtained from the Rio de Janeiro Cell Bank (RJ-Brazil). For all experiments, 100 µL of tumor cells were plated in 96-well plates (6 × 10^4 cells/cm^2 for adherent cells or 9 × 10^4 cells/cm^2 for leukemia). Tested compounds (0.1–25 μg/mL) dissolved in 1% DMSO (100 µL) were added to each well and incubated for 72 h. Control groups received the same amount of DMSO. After 69 h of treatment, 25 μL of MTT (5 mg/mL) were added. Three hours later, the MTT formazan product was dissolved in 100 μL of DMSO, and absorbance was measured at 595 nm using a multiplate reader (Thermo Plate®, TP Reader, São Paulo, SP, Brasil).

[4] = tested on: murine peritoneal macrophages RAW 264.7; test: Cytotoxicity assay on RAW 264.7 (LDH release); type: cell-based; conditions: 25 µg/mL, RAW 264.7
Description: Murine peritoneal macrophages of the cell line RAW 264.7 were obtained from the American Type Culture Collection (ATCC, Rockville, MD, USA), and cultured at 37 °C with CO2 at 5% in DMEM-F12 supplemented with 10% fetal bovine serum (FBS; Hyclone^TM, Logan, UT, USA) and gentamicin (50 μg/mL). RAW 264.7 cells (5 × 10^5 cells/mL) were cultured and incubated for 24 h with the riparins A, B, C, D, E and F at the final concentration of 25 µg/mL […]. The cytotoxicity assay was performed by LDH assay. The release of LDH (cytoplasmic lactate dehydrogenase enzyme) was determined using 50 μL of culture supernatant with 100 μL of LDH substrate plus and 5 μL ferric alum (5 mg/mL), at 37 °C for 3 min. Then, 100 μL of the NAD solution and phenazine methosulphate were added to the mixture, maintaining the temperature at 37 °C for 5 min (Labrax Commercial Kit, Clontech, Palo Alto, CA, USA). LDH is an oxidoreductase which catalyzes the interconversion of lactate and pyruvate and, for being a stable cytosolic enzyme, after damage to cell membrane it is released in the cellular environment and because of this LDH is an indirect indicator of cytotoxicity. LDH concentration was determined by colorimetry at 492 nm. The specific release of LDH was calculated as percentage of the controls (not treated cells as negative control and cells treated with 1%Triton X-100 as positive control).
(§3) The obtained data were evaluated by one-way analysis of variance (ANOVA) followed by a Student Newman Keuls post hoc test. The data concerning release percentage of cytoplasmatic enzyme lactate dehydrogenase (LDH) were reported by mean ± standard deviation and evaluated by one-way analysis of variance (ANOVA) followed by a Tukey post hoc test. In all cases differences were considered significant if p < 0.05, the means and respective standard errors were analyzed in the Graph Pad Prism version 5.0 for Windows software (GraphPad Software Incorporated, San Diego, CA, USA).

[5] = Scavenging activity of nitric oxide (nitrite production induced by SNP, Griess reaction); conditions: for IC50 Nitrite: nitrite formation
Description: as §1
Nitric oxide was generated from spontaneous decomposition of sodium nitroprusside in 20 mM phosphate buffer (pH 7.4). Once generated, NO interacts with oxygen to produce nitrite ions, which are measured by the Griess reaction. The reaction mixture (1 mL) containing 10 mM sodium nitroprusside (SNP) in phosphate buffer and the riparins at various concentrations of 1, 5, 10, 25 and 100 µg/mL were incubated at 37 °C for 1 h. A 0.5 mL aliquot was taken and homogenized with 0.5 mL Griess reagent. The absorbance of chromophore was measured at 540 nm. Percent inhibition of generated nitric oxide was measured by comparing the absorbance values of negative controls (only 10 mM sodium nitroprusside and vehicle) to assay preparations. Results were expressed as percentage of nitrite formed by SNP alone.

[6] = Antioxidant potential against the formation of TBARS (AAPH-induced lipid peroxidation of egg yolk homogenate); conditions: for IC50 TBARS: TBARS production
Description: as §1
The TBARS assay was employed to quantify lipid peroxidation and an adapted TBARS method was used to measure the antioxidant capacity of the riparins (Rip-A, -B, -C, -D, -E and -F) using egg yolk homogenate as lipid rich substrate. Egg yolk was homogenized (1% w/v) in 20 mM phosphate buffer (pH 7.4), 1 mL of homogenate was sonicated and then homogenized with 0.1 mL of the samples at concentrations of 1, 5, 10, 25 and 100 µg/mL. Lipid peroxidation was induced by the addition of 0.1 mL of 2,2'-azobis(2-methylpropionamidine) dihydrochloride solution (AAPH; 0.12 M). Control was evaluated with only the vehicle. Reactions were carried out for 15 minutes at 37 °C. After cooling, samples (0.5 mL) were centrifuged with 0.5 mL of trichloroacetic acid (15%) at 1,200 ×g for 10 min. An aliquot of 0.5 mL from supernatant was mixed with 0.5 mL TBA (0.67%) and heated at 95 °C for 30 min. After cooling, sample absorbance was measured using a spectrophotometer at 532 nm. The results were expressed as percentage of TBARS formed by AAPH alone (induced control).

[7] = tested on: HEP-2 (laryngeal carcinoma); test: Cytotoxicity against tumor cell lines (MTT); type: cell-based; conditions: Homo sapiens, 72 h, 95% confidence interval in brackets, read-out: IC50 values and confidence intervals, HEP-2
Description: as §2, §3

[8] = tested on: NCIH-292 (lung carcinoma); test: Cytotoxicity against tumor cell lines (MTT); type: cell-based; conditions: Homo sapiens, NCI-H292, 72 h, 95% confidence interval in brackets, read-out: IC50 values and confidence intervals, NCIH-292
Description: as §2, §3

[9] = tested on: HL-60 (pro-myelocytic leukemia); test: Cytotoxicity against tumor cell lines (MTT); type: cell-based; conditions: Homo sapiens, 72 h, 95% confidence interval in brackets, read-out: IC50 values and confidence intervals, HL-60
Description: as §2, §3

| Molecule | IC50 on HEP-2 [1] | 2-Deoxyribose degradation (%) ([2]; 1 μg/mL) | 2-Deoxyribose degradation (%) ([2]; 5 μg/mL) | 2-Deoxyribose degradation (%) ([2]; 10 μg/mL) | 2-Deoxyribose degradation (%) ([2]; 25 μg/mL) | 2-Deoxyribose degradation (%) ([2]; 100 μg/mL) | IC50 OH radical [2] | melting point | IC50 [3] | inhibition at 25 µg/mL [3] | LDH % Release [4] | Nitrite Production (% induced by SNP) ([5]; 1 μg/mL) | Nitrite Production (% induced by SNP) ([5]; 5 μg/mL) | Nitrite Production (% induced by SNP) ([5]; 10 μg/mL) | Nitrite Production (% induced by SNP) ([5]; 25 μg/mL) | Nitrite Production (% induced by SNP) ([5]; 100 μg/mL) | IC50 Nitrite [5] | TBARS levels (% AAPH) ([6]; 1 μg/mL) | TBARS levels (% AAPH) ([6]; 5 μg/mL) | TBARS levels (% AAPH) ([6]; 10 μg/mL) | further results |
| --- | --- | --- | --- | --- | --- | --- | --- | --- | --- | --- | --- | --- | --- | --- | --- | --- | --- | --- | --- | --- | --- |
| heyneanine | 689.45 µg/mL | – | – | – | – | – | – | – | – | – | – | – | – | – | – | – | – | – | – | – | – |
| CC[C@H]1CC2CN3CCc4c([nH]c5ccc(OC)cc45)[C@](C(=O)OC)(C2)[C@H]13 (stereo in doubt) [voacangine] | 159.33 µg/mL (≈ 432 µM) | – | – | – | – | – | – | – | – | – | – | – | – | – | – | – | – | – | – | – | – |
| CC[C@H]1C[C@@H]2CN3CCc4c([nH]c5ccccc45)[C@](C(=O)OC)(C2)[C@H]13 [Coronaridine, coronaridine] | 54.47 µg/mL (≈ 161 µM) | – | – | – | – | – | – | – | – | – | – | – | – | – | – | – | – | – | – | – | – |
| COc1ccc(CCNC(=O)c2ccccc2O)cc1OC [Rip-D, 2-Hydroxy-N-[2-(3,4-methoxyphenyl)ethyl]benzamide] | – | 93.5 ± 1.17 ^a % | 67.9 ± 1.74 ^a % | 56.9 ± 0.82 ^a % | 51.9 ± 1.27 ^a % | 47.3 ± 0.88 ^a % | 1.358 µg/mL (≈ 4.51 µM) | 96 °C | 1.9 to 11.4 µg/mL (≈ 6.31 to 37.8 µM) | > 70% | 83.12% | 72.6 ± 1.81 ^a % | 32.2 ± 1.45 ^a % | 28.9 ± 1.74 ^a % | 24.7 ± 1.77 ^a % | 17.3 ± 2.38 ^a % | 1.270 µg/mL (≈ 4.21 µM) | 41.2 ± 0.96 ^a % | 39.4 ± 0.71 ^a % | 37.3 ± 0.68 ^a % | LDH % Release ([4]; listed as riparin D): greater than 80%; TBARS levels (% AAPH) ([6]; 25 μg/mL): 34.4 ± 0.76 ^a %; TBARS levels (% AAPH) ([6]; 100 μg/mL): 25.6 ± 0.66 ^a %; IC50 TBARS [6]: 0.9958 µg/mL (≈ 3.3 µM); IC50 [7]: 7.3 µg/mL (≈ 24.2 µM); IC50 [8]: > 25 µg/mL; IC50 [9]: 9 µg/mL (≈ 29.9 µM) |
| COc1ccc(CCNC(=O)c2c(O)cccc2O)cc1OC [Rip-F, N-[2-(3,4-Dimethoxyphenyl)ethyl]-2,6-dihydroxybenzamide] | – | 83.3 ± 2.13 ^a % | 61.5 ± 0.98 ^a % | 57.6 ± 1.47 ^a % | 55.1 ± 1.78 ^a % | 50.9 ± 2.33 ^a % | 1.016 µg/mL (≈ 3.2 µM) | 167 °C | 1.9 to 11.4 µg/mL (≈ 5.99 to 35.9 µM) | > 70% | 91.01% | 74.9 ± 2.27 ^a % | 35.3 ± 0.96 ^a % | 21.5 ± 0.98 ^a % | 19.9 ± 0.71 ^a % | 17.3 ± 0.22 ^a % | 0.5817 µg/mL (≈ 1.83 µM) | 38.8 ± 0.99 ^a % | 35.9 ± 0.41 ^a % | 35.2 ± 0.44 ^a % | LDH % Release ([4]; listed as riparin F): greater than 80%; TBARS levels (% AAPH) ([6]; 25 μg/mL): 34.6 ± 0.49 ^a %; TBARS levels (% AAPH) ([6]; 100 μg/mL): 30.3 ± 0.47 ^a %; IC50 TBARS [6]: 0.6231 µg/mL (≈ 1.96 µM); IC50 [7]: 7.8 µg/mL (≈ 24.6 µM); IC50 [8]: 10.3 µg/mL (≈ 32.5 µM); IC50 [9]: 11.4 µg/mL (≈ 35.9 µM) |
